Several values for one entry are separate records, joined by “and”; a condition that tells them apart may be missing. Identical values can stand only once. Inconclusive results and toxic doses are left out.
Tested on: L1210 leukemia ip in BDF1 mice, survival T/C
Assay: NCI In Vivo Anticancer Drug Screen. Data for tumor model L1210 Leukemia (intraperitoneal) in B6D2F1 (BDF1) mice
Details: endpoint: mean survival time, higher = longer survival
Outline: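 Read-out is survival time, reported as the treated-group measurement over the vehicle-control measurement.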

[1] = dose: 50.0 mg/kg/injection, schedule: Q04DX003 (ip), vehicle: Klucel (hydroxypropylcellulose) (HPC)
[2] = dose: 100.0 mg/kg/injection, schedule: Q01DX009 (ip), vehicle: Klucel (hydroxypropylcellulose) (HPC)
[3] = dose: 100.0 mg/kg/injection, schedule: Q04DX003 (ip), vehicle: Klucel (hydroxypropylcellulose) (HPC)
[4] = dose: 200.0 mg/kg/injection, schedule: Q01DX009 (ip), vehicle: Klucel (hydroxypropylcellulose) (HPC)
[5] = dose: 200.0 mg/kg/injection, schedule: Q04DX003 (ip), vehicle: Klucel (hydroxypropylcellulose) (HPC)
[6] = dose: 400.0 mg/kg/injection, schedule: Q01DX009 (ip), vehicle: Klucel (hydroxypropylcellulose) (HPC)
[7] = dose: 400.0 mg/kg/injection, schedule: Q04DX003 (ip), vehicle: Klucel (hydroxypropylcellulose) (HPC)
[8] = dose: 100.0 mg/kg/injection, schedule: Q01DX001 (ip), vehicle: saline
[9] = dose: 200.0 mg/kg/injection, schedule: Q01DX001 (ip), vehicle: saline
[10] = dose: 400.0 mg/kg/injection, schedule: Q01DX001 (ip), vehicle: saline
[11] = dose: 12.5 mg/kg/injection, schedule: Q01DX009 (ip), vehicle: saline
[12] = dose: 25.0 mg/kg/injection, schedule: Q01DX009 (ip), vehicle: saline
[13] = dose: 25.0 mg/kg/injection, schedule: Q04DX003 (ip), vehicle: saline
[14] = dose: 100.0 mg/kg/injection, schedule: Q04DX002 (ip), vehicle: Klucel (hydroxypropylcellulose) (HPC)
[15] = dose: 200.0 mg/kg/injection, schedule: Q04DX002 (ip), vehicle: Klucel (hydroxypropylcellulose) (HPC)
[16] = dose: 400.0 mg/kg/injection, schedule: Q04DX002 (ip), vehicle: Klucel (hydroxypropylcellulose) (HPC)
[17] = dose: 50.0 mg/kg/injection, schedule: Q01DX009 (ip), vehicle: Klucel (hydroxypropylcellulose) (HPC)

## CCc1cccc2ccccc12
[1]
  T/C: 100 % of control
[2]
  T/C: 90 % of control
[3]
  T/C: 98 % of control
[4]
  T/C: 92 % of control
[5]
  T/C: 107 % of control
[6]
  T/C: 96 % of control
[7]
  T/C: 96 % of control

## Cc1cc(N(CCOS(C)(=O)=O)CCOS(C)(=O)=O)ccc1C=Nc1cc(Br)c(O)c(Br)c1
dose: 25.0 mg/kg/injection, schedule: Q04DX003 (ip), vehicle: Klucel (hydroxypropylcellulose) (HPC)
  T/C: 107 % of control and 111 % of control
[1]
  T/C: 109 % of control
dose: 75.0 mg/kg/injection, schedule: Q04DX003 (ip), vehicle: Klucel (hydroxypropylcellulose) (HPC)
  T/C: 175 % of control

## COc1ccc(/C=C(\CCCOC(C)=O)[N+](=O)[O-])cc1
[8]
  T/C: 100 % of control
[9]
  T/C: 111 % of control
[10]
  T/C: 113 % of control

## COc1cc2cnc3c4cc(OC)c(OC)cc4ccc3c2cc1OC
dose: 80.0 mg/kg/injection, schedule: Q01DX009 (ip), vehicle: saline
  T/C: 88 % of control
dose: 120.0 mg/kg/injection, schedule: Q01DX009 (ip), vehicle: saline
  T/C: 90 % of control
dose: 240.0 mg/kg/injection, schedule: Q01DX009 (ip), vehicle: saline
  T/C: 91 % of control

## CN(C)c1ccccc1C(=O)NNC(=S)Nc1ccccc1
[2]
  T/C: 103 % of control
[3]
  T/C: 96 % of control
[4]
  T/C: 96 % of control
[5]
  T/C: 93 % of control
[6]
  T/C: 93 % of control
[7]
  T/C: 94 % of control

## Clc1cccc(Cl)c1/C=N/Nc1nnc(N/N=C/c2c(Cl)cccc2Cl)c2ccccc12
dose: 50.0 mg/kg/injection, schedule: Q01DX001 (ip), vehicle: saline
  T/C: 103 % of control
[8]
  T/C: 100 % of control
[9]
  T/C: 100 % of control
[10]
  T/C: 103 % of control

## OCC1OC(n2ncc3nccnc32)C(O)C1O (centres undefined)
dose: 50.0 mg/kg/injection, schedule: Q01DX005 (ip), vehicle: other
  T/C: 105 % of control
dose: 100.0 mg/kg/injection, schedule: Q01DX005 (ip), vehicle: other
  T/C: 105 % of control
dose: 200.0 mg/kg/injection, schedule: Q01DX005 (ip), vehicle: other
  T/C: 91 % of control

## Nc1ccc(C(=O)NC(CCC(=O)O)C(=O)O)cc1 (centres undefined)
dose: 100.0 mg/kg/injection, schedule: Q04DX002 (ip), vehicle: saline with Tween-80
  T/C: 92 % of control
dose: 200.0 mg/kg/injection, schedule: Q04DX002 (ip), vehicle: saline with Tween-80
  T/C: 95 % of control
dose: 400.0 mg/kg/injection, schedule: Q04DX002 (ip), vehicle: saline with Tween-80
  T/C: 92 % of control

## C[N+](C)(C)CCOC(=O)c1ccc(CBr)c(CBr)c1
dose: 6.25 mg/kg/injection, schedule: Q01DX009 (ip), vehicle: saline
  T/C: 97 % of control
dose: 6.25 mg/kg/injection, schedule: Q04DX003 (ip), vehicle: saline
  T/C: 96 % of control
[11]
  T/C: 99 % of control
dose: 12.5 mg/kg/injection, schedule: Q04DX003 (ip), vehicle: saline
  T/C: 96 % of control
[12]
  T/C: 104 % of control
[13]
  T/C: 98 % of control

## C/C(=N\NS(C)(=O)=O)C(C)(C)C
dose: 75.0 mg/kg/injection, schedule: Q01DX001 (ip), vehicle: other
  T/C: 103 % of control
dose: 150.0 mg/kg/injection, schedule: Q01DX001 (ip), vehicle: other
  T/C: 103 % of control
dose: 300.0 mg/kg/injection, schedule: Q01DX001 (ip), vehicle: other
  T/C: 97 % of control

## CCCCCCCCCCCCCCCC(=O)N(CCCCN(C)C)CCCCN(C)C
dose: 2.0 mg/kg/injection, schedule: Q01DX009 (ip), vehicle: carboxymethylcellulose (CMC)
  T/C: 97 % of control
dose: 4.0 mg/kg/injection, schedule: Q01DX009 (ip), vehicle: carboxymethylcellulose (CMC)
  T/C: 98 % of control
dose: 6.0 mg/kg/injection, schedule: Q01DX009 (ip), vehicle: carboxymethylcellulose (CMC)
  T/C: 97 % of control

## CCCCCCOC(=O)C1(C)OC1c1ccccc1 (centres undefined)
dose: 100.0 mg/kg/injection, schedule: Q04DX002 (ip), vehicle: saline
  T/C: 112 % of control
dose: 200.0 mg/kg/injection, schedule: Q04DX002 (ip), vehicle: saline
  T/C: 104 % of control
dose: 400.0 mg/kg/injection, schedule: Q04DX002 (ip), vehicle: saline
  T/C: 93 % of control

## Nc1cc[c]([Hg][Cl])cc1
dose: 1.0 mg/kg/injection, schedule: Q01DX009 (ip), vehicle: Klucel (hydroxypropylcellulose) (HPC)
  T/C: 97 % of control
dose: 1.0 mg/kg/injection, schedule: Q04DX003 (ip), vehicle: saline
  T/C: 102 % of control
dose: 3.0 mg/kg/injection, schedule: Q01DX009 (ip), vehicle: Klucel (hydroxypropylcellulose) (HPC)
  T/C: 112 % of control
dose: 3.0 mg/kg/injection, schedule: Q04DX003 (ip), vehicle: saline
  T/C: 96 % of control
dose: 6.0 mg/kg/injection, schedule: Q01DX009 (ip), vehicle: Klucel (hydroxypropylcellulose) (HPC)
  T/C: 88 % of control
dose: 6.0 mg/kg/injection, schedule: Q04DX003 (ip), vehicle: saline
  T/C: 95 % of control

## CCN(CC)Cc1cc(Nc2c3ccc(Cl)cc3nc3ccc(OC)cc23)ccc1O
[14]
  T/C: 105 % of control
[15]
  T/C: 112 % of control
[16]
  T/C: 108 % of control

## Cc1ccc(C#N)s1
dose: 3.12 mg/kg/injection, schedule: Q01DX009 (ip), vehicle: other
  T/C: 98 % of control
dose: 6.25 mg/kg/injection, schedule: Q01DX009 (ip), vehicle: other
  T/C: 104 % of control
dose: 12.5 mg/kg/injection, schedule: Q01DX009 (ip), vehicle: other
  T/C: 98 % of control
dose: 16.0 mg/kg/injection, schedule: Q04DX003 (ip), vehicle: saline
  T/C: 102 % of control
dose: 25.0 mg/kg/injection, schedule: Q01DX009 (ip), vehicle: other
  T/C: 106 % of control
[13]
  T/C: 117 % of control

## CN(C)c1ccc(C(C[N+](=O)[O-])(c2ccc(N(C)C)cc2)c2ccc(N(C)C)cc2)cc1
[2]
  T/C: 93 % of control
[3]
  T/C: 103 % of control
[4]
  T/C: 100 % of control
[5]
  T/C: 93 % of control
[6]
  T/C: 97 % of control
[7]
  T/C: 90 % of control

## CS(=O)(=O)Oc1ccc2ccccc2c1[N+](=O)[O-]
dose: 100.0 mg/kg/injection, schedule: Q01DX001 (ip), vehicle: carboxymethylcellulose (CMC)
  T/C: 98 % of control
dose: 200.0 mg/kg/injection, schedule: Q01DX001 (ip), vehicle: carboxymethylcellulose (CMC)
  T/C: 98 % of control
dose: 400.0 mg/kg/injection, schedule: Q01DX001 (ip), vehicle: carboxymethylcellulose (CMC)
  T/C: 98 % of control

## CC(=O)c1cc(C)ccc1O
[3]
  T/C: 93 % of control
[5]
  T/C: 92 % of control

## Brc1n[nH]c(Br)n1
dose: 100.0 mg/kg/injection, schedule: Q01DX009 (ip), vehicle: saline with Tween-80
  T/C: 93 % of control
dose: 200.0 mg/kg/injection, schedule: Q01DX009 (ip), vehicle: saline with Tween-80
  T/C: 93 % of control
dose: 400.0 mg/kg/injection, schedule: Q01DX009 (ip), vehicle: saline with Tween-80
  T/C: 91 % of control

## CN(Cc1ccccc1)C(=O)Nc1ccccc1
[14]
  T/C: 98 % of control
[15]
  T/C: 103 % of control
[16]
  T/C: 95 % of control

## N#CC12OC1(C#N)C(=O)C1(Cl)C3C=CC(C3)C1(Cl)C2=O (centres undefined)
[11]
  T/C: 102 % of control
[12]
  T/C: 102 % of control
dose: 50.0 mg/kg/injection, schedule: Q01DX009 (ip), vehicle: saline
  T/C: 96 % of control and 106 % of control

## CC1(C2C3OC(=O)C2C2(O)CC4OC45C(=O)OC3C25C)CO1 (centres undefined)
dose: 25.0 mg/kg/injection, schedule: Q01DX009 (ip), vehicle: Klucel (hydroxypropylcellulose) (HPC)
  T/C: 92 % of control
[17]
  T/C: 104 % of control
[2]
  T/C: 95 % of control

## CCCCCCCNC(=O)Nc1ccc(Cl)c(Cl)c1
[8]
  T/C: 95 % of control
[9]
  T/C: 90 % of control
[10]
  T/C: 97 % of control

## CCCCCCOC(N)=O
[17]
  T/C: 96 % of control
[2]
  T/C: 96 % of control
[3]
  T/C: 96 % of control
[4]
  T/C: 96 % of control
[5]
  T/C: 96 % of control

## COc1ccccc1C1(O)c2ccccc2Sc2cccc(OC)c21 (centres undefined)
dose: 100.0 mg/kg/injection, schedule: Q04DX003 (ip), vehicle: saline with Tween-80
  T/C: 104 % of control
dose: 200.0 mg/kg/injection, schedule: Q04DX003 (ip), vehicle: saline with Tween-80
  T/C: 95 % of control
dose: 400.0 mg/kg/injection, schedule: Q04DX003 (ip), vehicle: saline with Tween-80
  T/C: 98 % of control

## COc1ccc(C(=O)N/N=C/c2ccc(NC(C)=O)cc2)cc1
[14]
  T/C: 100 % of control
[15]
  T/C: 96 % of control
[16]
  T/C: 115 % of control
